Several values for one entry are separate records, joined by “and”; a condition that tells them apart may be missing. Equal entries are not always repeated. Toxic doses and inconclusive results are not listed. No stated cut-off is given here; in the data, active means T/C of 150% or more; inactive means T/C below 125%.
System: L1210 leukemia ip in BDF1 mice, survival T/C
Assay: NCI In Vivo Anticancer Drug Screen. Data for tumor model L1210 Leukemia (intraperitoneal) in B6D2F1 (BDF1) mice
Details: endpoint: mean survival time, higher = longer survival
Method in brief: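 Each compound was tested against a transplantable tumor grown in mice. The endpoint was survival, with treated animals benchmarked against vehicle controls as a simple ratio.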

[1] = dose: 100.0 mg/kg/injection, schedule: Q01DX009 (ip), vehicle: Klucel (hydroxypropylcellulose) (HPC)
[2] = dose: 200.0 mg/kg/injection, schedule: Q01DX009 (ip), vehicle: Klucel (hydroxypropylcellulose) (HPC)
[3] = dose: 400.0 mg/kg/injection, schedule: Q01DX009 (ip), vehicle: Klucel (hydroxypropylcellulose) (HPC)
[4] = dose: 100.0 mg/kg/injection, schedule: Q04DX003 (ip), vehicle: saline
[5] = dose: 100.0 mg/kg/injection, schedule: Q01DX001 (ip), vehicle: saline
[6] = dose: 200.0 mg/kg/injection, schedule: Q01DX001 (ip), vehicle: saline
[7] = dose: 400.0 mg/kg/injection, schedule: Q01DX001 (ip), vehicle: saline
[8] = dose: 100.0 mg/kg/injection, schedule: Q04DX003 (ip), vehicle: Klucel (hydroxypropylcellulose) (HPC)
[9] = dose: 200.0 mg/kg/injection, schedule: Q04DX003 (ip), vehicle: Klucel (hydroxypropylcellulose) (HPC)
[10] = dose: 400.0 mg/kg/injection, schedule: Q04DX003 (ip), vehicle: Klucel (hydroxypropylcellulose) (HPC)

Measured: T/C

CC(=O)OCC1OC(n2cc(F)c(=O)[nH]c2=O)CC1OC(C)=O (stereo not given)
inactive: dose: 3.0 mg/kg/injection, schedule: Q01DX009 (ip), vehicle: saline 98 % of control | dose: 6.0 mg/kg/injection, schedule: Q01DX009 (ip), vehicle: saline 95 % of control | dose: 12.0 mg/kg/injection, schedule: Q01DX009 (ip), vehicle: saline 95 % of control | dose: 24.0 mg/kg/injection, schedule: Q01DX009 (ip), vehicle: saline 106 % of control | dose: 25.0 mg/kg/injection, schedule: Q01DX009 (ip), vehicle: saline 111 % of control | dose: 50.0 mg/kg/injection, schedule: Q01DX009 (ip), vehicle: saline 122 % of control | dose: 200.0 mg/kg/injection, schedule: Q01DX009 (ip), vehicle: saline 123 % of control

CCOC1=C(C#N)CC2(CC1)c1ccccc1-c1ccccc12
inactive: [1] 96 % of control | [2] 95 % of control | [3] 95 % of control

CCC[CH2][Hg][O]C(C)=O
inactive: dose: 3.13 mg/kg/injection, schedule: Q01DX009 (ip), vehicle: saline sonified 89 % of control | dose: 6.25 mg/kg/injection, schedule: Q01DX009 (ip), vehicle: saline sonified 89 % of control | dose: 6.25 mg/kg/injection, schedule: Q04DX003 (ip), vehicle: Klucel (hydroxypropylcellulose) (HPC) 100 % of control | dose: 12.5 mg/kg/injection, schedule: Q01DX009 (ip), vehicle: saline sonified 87 % of control | dose: 12.5 mg/kg/injection, schedule: Q04DX003 (ip), vehicle: Klucel (hydroxypropylcellulose) (HPC) 92 % of control

O=C(O)CCN1C/C(=C\c2ccc(Cl)cc2)C(=O)C1=O
inactive: [4] 101 % of control | dose: 200.0 mg/kg/injection, schedule: Q04DX003 (ip), vehicle: saline 101 % of control | dose: 400.0 mg/kg/injection, schedule: Q04DX003 (ip), vehicle: saline 101 % of control

Nc1n[nH]c2ccccc12
inactive: dose: 50.0 mg/kg/injection, schedule: Q04DX002 (ip), vehicle: gum acacia 104 % of control | dose: 100.0 mg/kg/injection, schedule: Q04DX002 (ip), vehicle: gum acacia 107 % of control | dose: 200.0 mg/kg/injection, schedule: Q04DX002 (ip), vehicle: gum acacia 100 % of control

Cc1ccc(S(=O)(=O)OCC2OC(n3ccc(=O)[nH]c3=O)C3OC(C)(C)OC23)cc1 (stereo not given)
inactive: dose: 100.0 mg/kg/injection, schedule: Q01DX005 (ip), vehicle: saline 122 % of control

CCC(C)c1cccc2c(C(CC)CC)cccc12 (stereo not given)
inactive: [5] 104 % of control | [6] 106 % of control | [7] 112 % of control

CC(=O)N(C)c1ccc(NC(=O)C2CCCCC2C(=O)O)cc1 (stereo not given)
inactive: [1] 98 % of control | [2] 95 % of control | [3] 93 % of control

CC(C)(CO)N=Cc1ccccc1Cl
inactive: [5] 102 % of control | [6] 100 % of control | [7] 100 % of control

O=C(O)C(Br)C(Br)C(=O)Nc1cccc(C(F)(F)F)c1 (stereo not given)
inactive: dose: 25.0 mg/kg/injection, schedule: Q01DX009 (ip), vehicle: Klucel (hydroxypropylcellulose) (HPC) 96 % of control | dose: 50.0 mg/kg/injection, schedule: Q01DX009 (ip), vehicle: Klucel (hydroxypropylcellulose) (HPC) 96 % of control | [1] 103 % of control | dose: 100.0 mg/kg/injection, schedule: Q01DX009 (ip), vehicle: other 96 % of control

O=C(COc1ccc(Cl)c(Cl)c1)NCc1ccc[n+](Cc2cccc(Cl)c2S(=O)(=O)F)c1
inactive: dose: 25.0 mg/kg/injection, schedule: Q04DX003 (ip), vehicle: saline 103 % of control | dose: 50.0 mg/kg/injection, schedule: Q04DX003 (ip), vehicle: saline 101 % of control | [4] 93 % of control and 100 % of control

CCc1nc(C)ncc1-c1ccc([N+](=O)[O-])cc1O
inactive: [8] 97 % of control | [9] 97 % of control | [10] 91 % of control

O=C1NC(=O)C2(CCN(CCCSc3ccc(F)cc3)CC2)C(=O)N1
inactive: [8] 98 % of control | [9] 98 % of control | [10] 94 % of control

CSC1=[N+](C)CCS1
inactive: dose: 75.0 mg/kg/injection, schedule: Q01DX001 (ip), vehicle: saline 106 % of control | dose: 75.0 mg/kg/injection, schedule: Q04DX003 (ip), vehicle: saline with Tween-80 109 % of control | dose: 87.5 mg/kg/injection, schedule: Q01DX009 (ip), vehicle: saline 98 % of control | dose: 150.0 mg/kg/injection, schedule: Q01DX001 (ip), vehicle: saline 107 % of control | dose: 150.0 mg/kg/injection, schedule: Q04DX003 (ip), vehicle: saline with Tween-80 101 % of control | dose: 175.0 mg/kg/injection, schedule: Q01DX009 (ip), vehicle: saline 100 % of control

COc1cccc(NC(=O)c2ccc(C(=O)Nc3cccc(OC)c3)cc2)c1
inactive: dose: 50.0 mg/kg/injection, schedule: Q01DX001 (ip), vehicle: saline 98 % of control | [5] 96 % of control | [6] 91 % of control

CS(=O)(=O)c1ncc2cnccn12
inactive: dose: 100.0 mg/kg/injection, schedule: Q01DX009 (ip), vehicle: water 101 % of control | dose: 100.0 mg/kg/injection, schedule: Q04DX003 (ip), vehicle: water 109 % of control | dose: 200.0 mg/kg/injection, schedule: Q01DX009 (ip), vehicle: water 109 % of control | dose: 400.0 mg/kg/injection, schedule: Q04DX003 (ip), vehicle: water 110 % of control

O=NN(CCCN(N=O)C(=O)Nc1c[nH]c(=O)[nH]c1=O)C(=O)Nc1c[nH]c(=O)[nH]c1=O
inactive: dose: 50.0 mg/kg/injection, schedule: Q01DX Z (ip), vehicle: carboxymethylcellulose (CMC) 110 % of control | dose: 75.0 mg/kg/injection, schedule: Q01DX Z (ip), vehicle: carboxymethylcellulose (CMC) 110 % of control | dose: 100.0 mg/kg/injection, schedule: Q01DX Z (ip), vehicle: carboxymethylcellulose (CMC) 115 % of control | dose: 150.0 mg/kg/injection, schedule: Q01DX Z (ip), vehicle: carboxymethylcellulose (CMC) 111 % of control | dose: 200.0 mg/kg/injection, schedule: Q01DX Z (ip), vehicle: carboxymethylcellulose (CMC) 119 % of control

CCC(=O)OC1C(C)OC(OC2C(C)OC(O[C@H]3[C@@H](CC=O)C[C@@H](C)[C@@H](O)/C=C/C=C/C[C@@H](C)OC(=O)C[C@@H](OC(=O)CC)[C@@H]3OC)C(O)C2N(C)C)CC1(C)O (stereo not given in full)
inactive: [1] 96 % of control | [8] 104 % of control | [2] 93 % of control | [9] 95 % of control | [3] 98 % of control | [10] 91 % of control

CCCCCCCCCC[As]1c2ccccc2Nc2ccccc21
inactive: dose: 50.0 mg/kg/injection, schedule: Q04DX002 (ip), vehicle: saline with Tween-80 92 % of control | dose: 100.0 mg/kg/injection, schedule: Q04DX002 (ip), vehicle: saline with Tween-80 89 % of control | dose: 200.0 mg/kg/injection, schedule: Q04DX002 (ip), vehicle: saline with Tween-80 96 % of control

O=C(O)c1ccc(/C=C\c2cccc(S(=O)(=O)F)c2)cc1
inactive: dose: 100.0 mg/kg/injection, schedule: Q01DX001 (ip), vehicle: saline with Tween-80 100 % of control | dose: 200.0 mg/kg/injection, schedule: Q01DX001 (ip), vehicle: saline with Tween-80 97 % of control | dose: 400.0 mg/kg/injection, schedule: Q01DX001 (ip), vehicle: saline with Tween-80 92 % of control

Cc1ccc2ccccc2c1OC(C)C(=O)O (stereo not given)
inactive: dose: 50.0 mg/kg/injection, schedule: Q01DX009 (ip), vehicle: saline with Tween-80 108 % of control | dose: 100.0 mg/kg/injection, schedule: Q01DX009 (ip), vehicle: saline with Tween-80 95 % of control | dose: 100.0 mg/kg/injection, schedule: Q04DX003 (ip), vehicle: alcohol 95 % of control | dose: 200.0 mg/kg/injection, schedule: Q01DX009 (ip), vehicle: saline with Tween-80 113 % of control | dose: 200.0 mg/kg/injection, schedule: Q04DX003 (ip), vehicle: alcohol 93 % of control

CCC1CN2C(=N1)c1ccccc1-c1cc([N+](=O)[O-])ccc12 (stereo not given)
inactive: [1] 101 % of control | [8] 99 % of control | [2] 104 % of control | [9] 106 % of control | [3] 95 % of control | [10] 97 % of control

Reference: PubChem BioAssay AID248 (DTP/NCI, 2004)
